Patent US20060216238A1, “Compositions and methods for targeting or imaging a tissue in a vertebrate subject” (priority 2005, published 2006)

Experiments:
[1] = Trafficking of OG-CPMV in vivo by tissue fluorescence measurements; parameters: species or system mouse; details: oral, exception GI tissues and lymph nodes in 1 of 3 mice
Description: Inoculation of mice with free Oregon Green 488 dye. Mice were administered 3.81 μg per mouse of free OG-488 dye by oral gavage, the equivalent amount of dye as that attached to the CPMV particles given by oral gavage. One mouse per day for three days post inoculation was perfused and tissues were isolated for fluorescence measurements. Similarly, by the intravenous route three mice were injected with 0.509 μg per mouse of free OG-488 dye, the equivalent amount of dye as that attached to the CPMV particles administered i.v. Tissues were harvested from mice following perfusion as described above.
Fluorescence measurements. Tissues were isolated and homogenized in PBS, then centrifuged at 10,000 g for 10 minutes at 4° C. to precipitate the cell debris. The OG-488-specific fluorescence emissions in the clarified tissue supernatants were determined using a Varian Cary Eclipse fluorescence spectrophotometer. A control sample of sham-inoculated tissue supernatant from each tissue was spiked with a known amount of OG-CPMV and the tissue-specific dye excitation and emission were determined for each tissue. The determined tissue specific emission λ value was then used in five separate scans of each tissue supernatant sample, following which the spectra were averaged and the emission value of the sham-inoculated control sample was subtracted as background.

[2] = tested on: CD8+ T cells producing IFN-γ and TNF-α; experiment: Virus-specific CD8+ T-cell activity, ICCS assay; assay type: in vivo, mouse
LCMV = details: mouse, in vivo
HUVECS = experiment: Endothelial cell migration assay; assay type: cell-based, human
Description: Endothelial cell migration assay. Migration of calcein AM labeled cells (5 μM, 30 min, at 37° C.) was tested in the presence or absence of the CPMV chimeras using cell migration chambers Briefly, the lower wells were loaded with buffers containing various chemo-attractants. The framed filter membrane was positioned on the top and 50,000 calcein labeled HUVECs treated with/without the targeting chimeras were added to the top well above the membrane. The assembly was incubated for 2 h at 37° C. and the number of cells that transmigrated to the bottom wells was quantified by measuring the intensity of fluorescence at 488 nm.

With “Oregon Green 488 (OG-488) carboxylic acid, succinimidyl ester [free OG-488 dye]” the “fluorescence in tissues due to free dye” value [1] was “negligible in all tissues at all time points”.

With “Lymphocytic choriomeningitis virus (LCMV), Armstrong strain” the “CD8+ T cells producing IFN-γ” value ([2]; assay 8 days after boosting) was 13.53%, the “CD8+ T cells producing TNF-α” value ([2]; assay 8 days after boosting) was 7.3% and the “CD8+ T-cells producing IFN-γ” value ([2]; primary response assay) was 10%. The “CD8+ T-cells producing TNF-α” value ([2]; primary response assay) was 6.5%, the “survival of lethal i.c. LCMV challenge” value (LCMV) was “enabled the mice to survive the lethal i.c. inoculation” and the “survival of lethal i.c. LCMV challenge, boost experiment” value (LCMV) was “All mice inoculated with LCMV 6 weeks before survived”.

With VEGF [reference compound] the “stimulation of migration of cells across the filter” value (HUVECS) was 30%.
